# Measurements as given in US11369596B2, “Methods of treating a neurodegenerative disease in a mammal in need thereof” (Thomas Jefferson University, priority 2013, dated 2022).
# How the values were obtained:
# SOD1-G93A mice [1] = tested on: SOD1-G93A mice
# Method: Drug Treatment and Survival Analysis:
# Baseline and study measures were recorded for weight, grip strength, food consumption, and survival. Determination of end-stage was the inability for a mouse to right itself after 30 seconds of being placed on its side.
# liver of SOD1-G93A mice = conditions: mouse, in vivo
# Method: Periodic Acid Schiff Staining:
# Saline perfused liver was postfixed with 4% paraformaldehyde for 24 h followed by 24 h incubation in 30% sucrose solution, embedded in OCT solution, and stored at −80° C. until sectioned (10 μm thickness). Sections were hydrated with water, immersed in PAS solutions (Sigma; 395) for 5 min at room temperature, and washed in water. Sections were immersed for 4 min in Schiff's reagent and washed in water for 5 min. Sections were counterstained with hematoxylin solution, dehydrated in ethanol and HemoD solution, mounted, and imaged.
# SOD1-G93A mice [2] = test: Compound muscle action potential (CMAP) recordings; type: in vivo; conditions: 140 day SOD1-G93A mice
# Source text: Compound Muscle Action Potential (CMAP) Recordings:
# Mice were anesthetized with 1% isoflurane and 0.5% oxygen. Following dermatomoty, stainless steel-stimulating needle electrodes were inserted at the sciatic notch, near the sciatic nerve. A ground electrode was placed subcutaneously in the back, and a reference electrode placed subcutaneously at the ankle. The sciatic nerve was stimulated (0.2 ms duration; 1.6 mV amplitude) and the response recorded via a needle electrode inserted into the plantar muscle in the medial half of the foot, following the line connecting the first and fifth tarsal/metatarsal joints. Data was collected using ADI Powerlab 8/30 stimulator and BioAMP amplifier (ADInstruments, Colorado Springs, Colo.) and analyzed using Scope 3.5.6 (ADInstruments). The compound muscle action potential (M-wave) amplitude was measured from baseline to peak. Data was averaged between left and right hind limb traces.
# ALS = ALS patients; cited from earlier work
structure (smiles),measurement,setting,value
"COc1cc2c(cc1OC)CN(CCc1ccc(NC(=O)c3cccc4c(=O)c5cccc(OC)c5[nH]c34)cc1)CC2 [elacridar, N-[4-[2-(3,4-dihydro-6,7-dimethoxy-2(1H)-isoquinolinyl)ethyl]phenyl]-9,10-dihydro-5-methoxy-9-oxo-4-acridine carboxamide]",effect on disease progression / survival,"SOD1-G93A mice [1]; chronic elacridar alone, beginning at disease onset, SOD1-G93A mice",did not alter disease progression
same,safety of chronic treatment,"SOD1-G93A mice [1]; mouse, in vivo",safe
same,liver toxicity (periodic acid Schiff staining),liver of SOD1-G93A mice,did not cause liver toxicity
"Nc1nc2ccc(OC(F)(F)F)cc2s1 [riluzole, 6-(trifluoromethoxy)benzothiazol-2-amine]",CMAP peak amplitude,SOD1-G93A mice [2],5.00±0.67 mV
same,slowing of disease progression,ALS,3-9 months
